Each compound was assayed against T1, Recombinant human IKKβ (residues 1-737) (IKK2) (Homo sapiens, UniProt O14920) (assay: IKK2 TR-FRET assay). Conditions: IKK2 5 nM, GST-IκBα 25 nM, ATP 1 μM, 30 minutes at room temperature, read-out: pIC50 against IKK2 (converted).
T1 construct: Recombinant human IKKβ (residues 1-737) was expressed in baculovirus; GST (C); made in house
T1 sequence (O14920 1-737): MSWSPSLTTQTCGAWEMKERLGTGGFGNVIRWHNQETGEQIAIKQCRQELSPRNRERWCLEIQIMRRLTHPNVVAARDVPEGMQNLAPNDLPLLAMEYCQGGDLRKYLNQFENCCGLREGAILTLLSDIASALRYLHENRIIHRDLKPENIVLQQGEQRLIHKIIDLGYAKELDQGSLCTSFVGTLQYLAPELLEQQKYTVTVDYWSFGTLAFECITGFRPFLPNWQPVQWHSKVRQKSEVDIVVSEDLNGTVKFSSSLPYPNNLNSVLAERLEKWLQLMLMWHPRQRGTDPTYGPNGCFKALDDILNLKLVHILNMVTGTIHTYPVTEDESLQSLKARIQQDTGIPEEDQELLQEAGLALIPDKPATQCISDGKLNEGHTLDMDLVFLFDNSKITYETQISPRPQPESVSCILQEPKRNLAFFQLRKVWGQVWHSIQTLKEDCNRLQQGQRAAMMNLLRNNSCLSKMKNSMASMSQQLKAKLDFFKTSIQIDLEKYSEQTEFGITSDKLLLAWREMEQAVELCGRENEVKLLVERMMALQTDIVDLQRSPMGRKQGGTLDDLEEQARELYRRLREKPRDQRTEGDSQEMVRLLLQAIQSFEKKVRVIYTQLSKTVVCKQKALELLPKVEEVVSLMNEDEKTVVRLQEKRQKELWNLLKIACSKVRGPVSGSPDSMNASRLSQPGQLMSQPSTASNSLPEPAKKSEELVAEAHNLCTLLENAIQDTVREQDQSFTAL
Type: biochemical
Description: Recombinant human IKKβ (residues 1-737) was expressed in baculovirus as a C-terminal GST-tagged fusion protein, and its activity was assessed using a time-resolved fluorescence resonance energy transfer (TR-FRET) assay. Briefly, IKK2 (5 nM final) diluted in assay buffer (50 mM HEPES, 10 mM MgCl2, 1 mM CHAPS pH 7.4 with 1 mM DTT and 0.01% w/v BSA) was added to wells containing various concentrations of compound or DMSO vehicle (3% final). The reaction was initiated by the addition of GST-IκBα substrate (25 nM final)/ATP (1 μM final), in a total volume of 30 μl. The reaction was incubated for 30 minutes at room temperature, then terminated by the addition of 15 μl of 50 mM EDTA. Detection reagent (15 μl) in buffer (100 mM HEPES pH 7.4, 150 mM NaCl and 0.1% w/v BSA) containing antiphosphoserine-IκBα-32/36 monoclonal antibody 12C2 (Cell Signalling Technology, Beverly Mass., USA) labelled with W-1024 europium chelate (Wallac O Y, Turku, Finland), and an APC-labelled anti-GST antibody (Prozyme, San Leandro, Calif., USA) was added and the reaction was further incubated for 60 minutes at room temperature. The degree of phosphorylation of GST-IκBα was measured using a Packard Discovery plate reader (Perkin-Elmer Life Sciences, Pangbourne, UK) as a ratio of specific 665 nm energy transfer signal to reference europium 620 nm signal.

| SMILES | IC50 [µM] |
| --- | --- |
| Cn1cnc(S(=O)(=O)N2CCC(n3ncc4c(C(N)=O)cc(-c5ccccc5)cc43)CC2)c1 [Example 5, 1-{1-[(1-methyl-1H-imidazol-4-yl)sulfonyl]-4-piperidinyl}-6-phenyl-1H-indazole-4-carboxamide] | ≤ 10 |
| CCC(=O)N1CCC(n2ncc3c(C(N)=O)cc(-c4ccccc4)cc32)CC1 [Example 6, 6-phenyl-1-(1-propanoyl-4-piperidinyl)-1H-indazole-4-carboxamide] | ≤ 10 |
| NC(=O)c1cc(-c2ccccc2)cc2[nH]ncc12 [Example 3, 6-phenyl-1H-indazole-4-carboxamide] | ≤ 10 |
| NC(=O)c1cc(-c2ccccc2)cc2c1cnn2C1CCNCC1 [Example 2, 6-phenyl-1-(4-piperidinyl)-1H-indazole-4-carboxamide] | ≤ 10 |
| NC(=O)c1cc(-c2ccccc2)cc2c1cnn2C1CCN(C(=O)c2ccccc2)CC1 [Example 8, 6-phenyl-1-[1-(phenylcarbonyl)-4-piperidinyl]-1H-indazole-4-carboxamide] | ≤ 10 |
| CC(C)(C)OC(=O)N1CCC(n2ncc3c(C(N)=O)cc(-c4ccccc4)cc32)CC1 [Example 1, 1,1-dimethylethyl-4-[4-(aminocarbonyl)-6-phenyl-1H-indazol-1-yl]-1-piperidinecarboxylate] | ≤ 10 |
| CC(C)(C)OC(=O)N1CCCC(n2ncc3c(C(N)=O)cc(-c4ccccc4)cc32)C1 (stereo not shown) [Example 12, 1,1-dimethylethyl-3-[4-(aminocarbonyl)-6-phenyl-1H-indazol-1-yl]-1-piperidinecarboxylate] | ≤ 10 |

Now from value to compound:

| IC50 [µM] | SMILES |
| --- | --- |
| > 15.8 | NC(=O)c1cc(-c2ccccc2)cc2c1cnn2C1CCCN(S(=O)(=O)c2ccccc2)C1 (stereo not shown) [Example 18, 6-phenyl-1-[1-(phenylsulfonyl)-3-piperidinyl]-1H-indazole-4-carboxamide] |
| ≤ 10 | NC(=O)c1cc(-c2ccccc2)cc2c1cnn2C1CCN(S(=O)(=O)c2ccccc2)CC1 [Example 9, 6-phenyl-1-[1-(phenylsulfonyl)-4-piperidinyl]-1H-indazole-4-carboxamide] |
| > 15.8 | NC(=O)c1cc(-c2ccccc2)cc2c1cnn2C1CCCN(S(=O)(=O)c2ccc(F)cc2)C1 (stereo not shown) [Example 19, 1-{1-[(4-fluorophenyl)sulfonyl]-3-piperidinyl}-6-phenyl-1H-indazole-4-carboxamide] |
| > 15.8 | Cn1cnc(S(=O)(=O)N2CCCC(n3ncc4c(C(N)=O)cc(-c5ccccc5)cc43)C2)c1 (stereo not shown) [Example 15, 1-{1-[(1-methyl-1H-imidazol-4-yl)sulfonyl]-3-piperidinyl}-6-phenyl-1H-indazole-4-carboxamide] |
| ≤ 10 | CCS(=O)(=O)N1CCCC(n2ncc3c(C(N)=O)cc(-c4ccccc4)cc32)C1 (stereo not shown) [Example 14, 1-[1-(ethylsulfonyl)-3-piperidinyl]-6-phenyl-1H-indazole-4-carboxamide] |
| ≤ 10 | CCS(=O)(=O)N1CCC(n2ncc3c(C(N)=O)cc(-c4ccccc4)cc32)CC1 [Example 7, 1-[1-(ethylsulfonyl)-4-piperidinyl]-6-phenyl-1H-indazole-4-carboxamide] |
| > 15.8 | NC(=O)c1cc(-c2ccccc2)cc2c1cnn2C1CCCN(C(=O)c2ccccc2)C1 (stereo not shown) [Example 17, 6-phenyl-1-[1-(phenylcarbonyl)-3-piperidinyl]-1H-indazole-4-carboxamide] |
| > 15.8 | CCC(=O)N1CCCC(n2ncc3c(C(N)=O)cc(-c4ccccc4)cc32)C1 (stereo not shown) [Example 16, 6-phenyl-1-(1-propanoyl-3-piperidinyl)-1H-indazole-4-carboxamide] |
| ≤ 10 | NC(=O)c1cc(-c2ccccc2)cc2c1cnn2C1CCN(S(=O)(=O)c2ccc(F)cc2)CC1 [Example 4, 1-{1-[(4-fluorophenyl)sulfonyl]-4-piperidinyl}-6-phenyl-1H-indazole-4-carboxamide] |

— patent publication US20080262040A1, “Chemical Compounds” (SMITHKLINE BEECHAM CORPORATION, priority 2005, published 2008)
